Series [1] is described as follows: Drug excretion in Wistar rat urine at 750 mg/kg, po after 12 hrs by HPLC-UV analysis. In kind it is ADME, organism-based. On the set-up: dose 750 mg/kg, route oral. As to conditions: in vivo; call rule not given here.
Series [2] in a line: Drug excretion in Wistar rat feces at 750 mg/kg, po after 12 hrs by HPLC-UV analysis. The format is ADME, organism-based. On the set-up: dose 750 mg/kg, route oral. As to conditions: in vivo.
The nature of series [3]: Drug metabolism in Wistar rat urine/feces treated with 750 mg/kg, po of 3,5,7,3',4'-pentamethoxyflavone by LC-MS and LC-MS/MS analysis. In kind it is ADME, organism-based. On the set-up: dose 750 mg/kg, route oral. As to conditions: in vivo.
Series [4] in a line: Drug metabolism in Wistar rat assessed as excretion of 7-methoxy-2-(4-methoxyphenyl)-4-oxo-4H-chromen-5-yl hydrogen sulfate in urine at 750 mg/kg, po by LC-MS and LC-MS/MS analysis. More on the design: dose 750 mg/kg, route oral. In kind it is ADME, organism-based. The settings on record: in vivo.
A short description of series [5]: Drug metabolism in Wistar rat assessed as excretion of 5-hydroxy-2-(4-methoxyphenyl)-4-oxo-4H-chromen-7-yl hydrogen sulfate in urine at 750 mg/kg, po by LC-MS and LC-MS/MS analysis. The format is ADME, organism-based. On the set-up: dose 750 mg/kg, route oral. The settings on record: in vivo.
Series [6] can be described thus: Drug metabolism in Wistar rat assessed as excretion of 5-hydroxy-2-(4-hydroxyphenyl)-7-methoxy-4H-chromen-4-one in urine/feces at 750 mg/kg, po by LC-MS and LC-MS/MS analysis. The format is ADME, organism-based. More on the design: dose 750 mg/kg, route oral. The settings on record: in vivo.
The nature of series [7]: Drug excretion in Wistar rat urine at 750 mg/kg, po after 24 to 72 hrs by HPLC-UV analysis. The format is ADME, organism-based. On the set-up: dose 750 mg/kg, route oral. The settings on record: in vivo.
Series [8] in a line: Drug excretion in Wistar rat feces at 750 mg/kg, po after 18 to 24 hrs by HPLC-UV analysis. In kind it is ADME, organism-based. The settings on record: in vivo. On the set-up: dose 750 mg/kg, route oral.
The nature of series [9]: AUC in Wistar rat at 250 mg/kg, po by HPLC analysis. The format is ADME, organism-based. On the set-up: dose 250 mg/kg, route oral. As to conditions: plasma.
Series [10] is described as follows: AUC in Wistar rat at 250 mg/kg, iv by HPLC analysis. In kind it is ADME, organism-based. More on the design: dose 250 mg/kg, route intravenous. As to conditions: plasma.
Series [11] is described as follows: Half life in Wistar rat at 250 mg/kg, po by HPLC analysis. The format is ADME, organism-based. On the set-up: dose 250 mg/kg, route oral. As to conditions: in vivo.
The nature of series [12]: Half life in Wistar rat at 250 mg/kg, iv by HPLC analysis. The format is ADME, organism-based. More on the design: dose 250 mg/kg, route intravenous. As to conditions: Wistar, in vivo.
Series [13] is described as follows: Elimination rate constant in Wistar rat at 250 mg/kg, po by HPLC analysis. The settings on record: in vivo, read-out: Ke (converted). The format is ADME, organism-based. More on the design: dose 250 mg/kg, route oral.
Series [14] can be described thus: Elimination rate constant in Wistar rat at 250 mg/kg, iv by HPLC analysis. The format is ADME, organism-based. More on the design: dose 250 mg/kg, route intravenous. The settings on record: Wistar, in vivo, read-out: Ke (converted).
Series [15] can be described thus: Clearance in Wistar rat at 250 mg/kg, po by HPLC analysis. On the set-up: dose 250 mg/kg, route oral. In kind it is ADME, organism-based. As to conditions: in vivo.
Series [16] can be described thus: Clearance in Wistar rat at 250 mg/kg, iv by HPLC analysis. In kind it is ADME, organism-based. More on the design: dose 250 mg/kg, route intravenous. As to conditions: in vivo.
A short description of series [17]: Tmax in Wistar rat at 250 mg/kg, po by HPLC analysis. As to conditions: in vivo. More on the design: dose 250 mg/kg, route oral. The format is ADME, organism-based.
A short description of series [18]: Cmax in Wistar rat at 250 mg/kg, po by HPLC analysis. The format is ADME, organism-based. On the set-up: dose 250 mg/kg, route oral. The settings on record: in vivo.
In series [19] the test system is Rattus norvegicus. Description: Volume of distribution in Wistar rat at 250 mg/kg, po by HPLC analysis. The format is ADME, organism-based. More on the design: dose 250 mg/kg, route oral. The settings on record: in vivo.
Series [20] has as its system Rattus norvegicus. Description: Absorption rate constant in Wistar rat at 250 mg/kg, po by HPLC analysis. In kind it is ADME, organism-based. On the set-up: dose 250 mg/kg, route oral. As to conditions: in vivo.
Series [21] can be described thus: Oral bioavailability in Wistar rat at 250 mg/kg by HPLC analysis. The settings on record: in vivo. The format is ADME, organism-based.
A further series deals with Liver. Description: AUC (0.083 to 4 hrs) in Wistar rat liver at 750 mg/kg, po by LC-MS/MS analysis. The format is ADME, organism-based. On the set-up: time 0.083-4 hr, dose 750 mg/kg, route oral. The settings on record: in vivo.
For the next series, the system named is Kidney. Description: AUC (0.083 to 4 hrs) in Wistar rat kidney at 750 mg/kg, po by LC-MS/MS analysis. As to conditions: in vivo. In kind it is ADME, organism-based. More on the design: time 0.083-4 hr, dose 750 mg/kg, route oral.
In the next series the test system is Lung. Nature of the series: AUC (0.083 to 4 hrs) in Wistar rat lung at 750 mg/kg, po by LC-MS/MS analysis. The format is ADME, organism-based. More on the design: time upper 4 hr, time lower 0.083 hr, dose 750 mg/kg, route oral. As to conditions: in vivo.
Another series deals with Brain. Description: AUC (0.083 to 4 hrs) in Wistar rat brain at 750 mg/kg, po by LC-MS/MS analysis. In kind it is ADME, organism-based. On the set-up: time 0.083-4 hr, dose 750 mg/kg, route oral. As to conditions: in vivo.
A short description of series [22]: Cmax in Wistar rat liver at 750 mg/kg, po by LC-MS/MS analysis. In kind it is ADME, organism-based. On the set-up: dose 750 mg/kg, route oral.
Series [23] in a line: Cmax in Wistar rat kidney at 750 mg/kg, po by LC-MS/MS analysis. In kind it is ADME, organism-based. More on the design: dose 750 mg/kg, route oral.
The nature of series [24]: Cmax in Wistar rat lung at 750 mg/kg, po by LC-MS/MS analysis. In kind it is ADME, organism-based. More on the design: dose 750 mg/kg, route oral.
The nature of series [25]: Cmax in Wistar rat brain at 750 mg/kg, po by LC-MS/MS analysis. More on the design: dose 750 mg/kg, route oral. In kind it is ADME, organism-based.
A short description of series [26]: Cmax in Wistar rat testes at 750 mg/kg, po by LC-MS/MS analysis. The format is ADME, organism-based, Testis. On the set-up: dose 750 mg/kg, route oral.
Series [27] is described as follows: Tmax in Wistar rat liver at 750 mg/kg, po by LC-MS/MS analysis. In kind it is ADME, organism-based. On the set-up: dose 750 mg/kg, route oral.
A short description of series [28]: Tmax in Wistar rat kidney at 750 mg/kg, po by LC-MS/MS analysis. The format is ADME, organism-based. More on the design: dose 750 mg/kg, route oral.
The nature of series [29]: Tmax in Wistar rat lung at 750 mg/kg, po by LC-MS/MS analysis. In kind it is ADME, organism-based. On the set-up: dose 750 mg/kg, route oral.
Series [30] in a line: Tmax in Wistar rat brain at 750 mg/kg, po by LC-MS/MS analysis. The format is ADME, organism-based. More on the design: dose 750 mg/kg, route oral.
Series [31] in a line: Tmax in Wistar rat testes at 750 mg/kg, po by LC-MS/MS analysis. The format is ADME, organism-based, Testis. More on the design: dose 750 mg/kg, route oral.
A short description of series [32]: Drug excretion in Wistar rat urine at 750 mg/kg, po after up to 72 hrs by HPLC-UV analysis. The format is ADME, organism-based. More on the design: dose 750 mg/kg, route oral. The settings on record: read-out: Drug excretion.
Series [33] in a line: Drug excretion in Wistar rat feces at 750 mg/kg, po after up to 72 hrs by HPLC-UV analysis. On the set-up: dose 750 mg/kg, route oral. The format is ADME, organism-based. The settings on record: faeces, read-out: Drug excretion.
A short description of series [34]: AUC (0.083 to 4 hrs) in Wistar rat testes at 750 mg/kg, po by LC-MS/MS analysis. The settings on record: in vivo. On the set-up: time 0.083-4 hr, dose 750 mg/kg, route oral. The format is ADME, organism-based, Testis.

For `COc1cc(O)c2c(=O)cc(-c3ccccc3)oc2c1` [TECHTOCHRYSIN], the Drug excretion result in [1] and in series [2] was “Active” throughout.
Regarding `COc1cc(O)c2c(=O)c(O)c(-c3ccc(OC)c(O)c3)oc2c1` [OMBUINE], the Drug metabolism entry in [3] is on record as “metabolite_detected”.
As a reminder, the half-life is how long it takes for the measured level to halve. Higher therefore signals slow decline. By CL/F is commonly meant clearance divided by bioavailability, as obtained after extravascular dosing. A word on the clearance: it is a measure of how efficiently the substance is removed, as volume per time. One may read the Tmax as the time at which the peak concentration occurs. What is called Cmax is the peak of the concentration-time curve. The bioavailability is the share of a dose that reaches the circulation, judged against a reference dose that is usually intravenous. High values mean much systemic uptake, low ones little systemic uptake. Turning to `COc1ccc(-c2cc(=O)c3c(OC)cc(OC)cc3o2)cc1` [TRIMETHYLAPIGENIN], the Drug metabolism entry in series [4], in series [5] and in series [6] was “metabolite_detected” each time. Also, the Drug excretion entry in [7], in [8], in [1] and in series [2] was “Active” each time. For the same molecule, the AUC in series [9] stood at 6.96 µg·h/mL; in [10] it was 276 µg·h/mL; in the series with Liver, 7.83 µg·h/g; in the series on Kidney it was 3.01 µg·h/g; in the series with Lung, 1.88 µg·h/g; in the series on Brain, 2.5 µg·h/g. In [34], this molecule displayed an AUC of 1.96 µg·h/g. Also, the half-life was 5.04 h in series [11] and 4.19 h in [12]. The k el in [13] was 4.17e-05 s⁻¹; in [14] it was 8.89e-05 s⁻¹. This molecule gave a CL/F in series [15] of 5.62 mL/min. The molecule also gave a clearance in series [16] of 0.105 mL/min. The Tmax in series [17] came to 0.85 h; in series [27] it was 2.64 h; in series [28], 3.43 h; in series [29], 1.76 h; in series [30], 3.43 h; in [31] it was 3.14 h. For the same molecule, the Cmax in series [18] was determined as 880 ng/mL; in series [22] it was 3010 ng/g; in series [23], 1640 ng/g; in [24] it was 1410 ng/g; in series [25] it was 1430 ng/g; in series [26], 1100 ng/g. Further, the Vd in the series on Rattus norvegicus [19] was 2385.1 mL. The same molecule gave a ka in the series with Rattus norvegicus [20] of 8.53 h⁻¹. This molecule came in with a bioavailability in series [21] of 1.75%. Besides, the values for the dose excreted at 72 h in [32] and in series [33] were 1.77% and 1.76%, respectively.
For the molecule `COc1cc(O)c2c(=O)c(OC)c(-c3ccc(OC)c(O)c3)oc2c1` [AYANIN], in [3], the Drug metabolism entry is reported as “metabolite_detected”.

These data come from ChEMBL document CHEMBL3526121, “Pharmacokinetics, bioavailability, tissue distribution, excretion, and metabolite identification of methoxyflavones in Kaempferia parviflora extract in rats” (Drug Metab Dispos, 2012).
